For data set [1], the system named is SW480 colon cancer cells. Briefly: Cytotoxicity assay, SW480. Type of data set: cell-based. The settings on record: 72 hours, cell count.
Procedure: (§1) Colon cancer cell lines HT29, HCT116, and SW480 (10,000 cells) were plated into 24-well plates in Dulbecco's modified Eagle medium (DMEM) containing 10% fetal bovine serum (FBS). […] The plates were washed with PBS once and the attached cells were collected by tripsinization.
For data set [2], the system named is HCT116 colon cancer cells. Briefly: Cytotoxicity assay, HCT116. The following applies: read-out: Cytotoxicity IC50 HCT116.
Procedure: as §1
The subject of data set [3] is HT29 colon cancer cells. Briefly: Cytotoxicity assay, HT29. The settings on record: read-out: Cytotoxicity IC50 HT29.
Procedure: as §1
A short description of data set [4]: DPPH assay (antiradical activity). The following applies: 400 μM DPPH. How it is done: The DPPH assay was performed on extracts, fractions, and purified compounds as previously described, using 400 μM DPPH (9).
The DPPH assay is an indication of the ability of a substance to scavenge free radicals. Gallic acid is know to be an effective free radical scavenger.

Data set [5] deals with IL-8 production in human small airway epithelial (SAE) cells. Briefly: IL-8 immunoassay (ELISA) in SAE cells. Type of data set: cell-based. The following applies: compound 100 μM, 24 hours; for inhibition at 100 µM: Homo sapiens. Here is the method:
Human SAE cells were cultured according to supplier instructions (Clonetics, CA) and maintained in a controlled atmosphere of air-5% CO2 at 37° C. Confluent SAE cells at passages 4-8 were used for experiments.
Cigarette smoke extract (CSE) was prepared using a modified protocol (24). Briefly, a Barnet vacuum pump operating at constant flow was used to draw the smoke of one unfiltered 2R1 reference cigarette (University of Kentucky) through 25 mL of Dulbecco's phosphate-buffered saline. This solution (100% CSE) was adjusted to pH 7.4, filtered, diluted with small airway growth medium to a final concentration of 5%, and added to the cells immediately.
Cells were treated with 5% CSE or pure compounds (100 μM), or pretreated with pure compounds 30 minutes prior to 5% CSE exposure. After 24 hours measurement of human IL-8 in cell culture supemates was performed by ELISA (R&D Systems Inc., MN). Statistical analyses were performed by Student's t-test (two-sided) using the JMP Statistics software package (SAS Institute Inc., NC) and defined at the 5% level.

The test system of data set [6] is HT29 colon cancer cells.
Procedure: as §1
Data set [7] concerns HCT116 colon cancer cells.
Procedure: as §1
In data set [8] the test system is HT29 colon cancer cells. The following applies: positive controls, refs (8, 19); cited from earlier work.
Where [9] appears, read: pretreated 30 minutes prior to 5% CSE.

Read-outs that look alike come from different tables or passages of the source. Where only a bound is given, the exact number is not on record here.

Data on eight molecules can be found in patent US8846757B2, “Bioactive depside and anthocyanin compounds, compositions, and methods of use” (The Trustees of Columbia University in the City of New York, priority 2006, dated 2014).

For the molecule `O=c1[nH]cc(F)c(=O)[nH]1` [Compound 5-FU, 5-fluorouracil, reference compound], the 50% inhibitory concentration (IC50) in data set [1] (Homo sapiens, SW480) was found to be 53 µM; in data set [2] (Homo sapiens, HCT-116, 72 h) it was 45.1 µM; in data set [3] (Homo sapiens, HT-29, 72 h), 46.1 µM.
Consider `OC[C@H]1O[C@@H](Oc2cc3c(O)cc(O)cc3[o+]c2-c2cc(O)c(O)c(O)c2)[C@H](O)[C@@H](O)[C@@H]1O` [Compound 4, delphinidin 3-glucoside], for which the concentration for half-maximal inhibition (IC50) was 20 µM in data set [1]; 12 µM in data set [2] (72 hours, cell count); 26.3 µM in data set [4]; around 100 µM in data set [3] (72 hours, cell count). Further, in data set [5] (no CSE, 100 µM), the “IL-8 inhibition in SAE cells, Untreated” value was “Not Detected”. Moreover, the “IL-8 inhibition in SAE cells, Treated with 5% CSE” value (from here on “IL-8 inhibition … with 5% CSE”) in data set [5] (setting [9]) is 96.0%.
`O=C(O)c1cc(O)c(O)c(O)c1` [Gallic acid, gallic acid, reference compound] came in with a half-inhibitory concentration (IC50) in data set [4] of 30 ± 2.9 µM.
Regarding `OC[C@H]1O[C@@H](Oc2cc3c(O)cc(O)cc3[o+]c2-c2ccc(O)c(O)c2)[C@H](O)[C@@H](O)[C@@H]1O` [Compound 3, cyanidin 3-glucoside], the IC50 in data set [1] was 90 to 100 µM; in data set [2] (72 hours, cell count), around 70 µM; in data set [4], 28.4 µM; in data set [3] (72 hours, cell count), around 100 µM. Besides, the “IL-8 inhibition in SAE cells, Untreated” value in data set [5] (no CSE) was 65.3%. For the same molecule, in data set [5] (setting [9]), the “IL-8 inhibition … with 5% CSE” value is listed as 36.4%.
As to `O=C(O)Cc1c(O)cc(O)cc1OC(=O)c1ccc(O)c(O)c1` [Compound 2, 2-O-(3,4-dihydroxybenzoyl)-2,4,6-trihydroxyphenylacetic acid], the IC50 is above 100 µM in data set [6], 61.8 µM in data set [4] and 30 µM in data set [7]. Moreover, in data set [5] (no CSE), the “IL-8 inhibition in SAE cells, Untreated” value is given as 74.9%. In addition, the “IL-8 inhibition … with 5% CSE” value in data set [5] (setting [9]) was 70.3%.
Consider catechin [reference compound], for which the “IL-8 inhibition in SAE cells, Untreated” value in data set [5] (no CSE) is “No Change”. Further, the “IL-8 inhibition … with 5% CSE” value in data set [5] (setting [9]) is on record as 60.3%.
With `COC(=O)Cc1c(O)cc(O)cc1OC(=O)c1ccc(O)c(O)c1` [Compound 1, methyl 2-[(3,4-dihydroxybenzoyloxy)-4,6-dihydroxyphenyl]acetate], the IC50 in data set [2] (Homo sapiens, HCT-116, 72 h) was above 100 µM; in data set [4], 51.4 µM; in data set [3] (Homo sapiens, HT-29, 72 h), 65 µM. For the same molecule, the inhibition at 100 µM in data set [5] (no CSE, read-out: IL-8 inhibition in SAE cells, Untreated) amounted to 81.3%; in data set [5] (pretreated 30 minutes prior to 5% CSE, read-out: IL-8 inhibition in SAE cells, Treated with 5% CSE), 47.3%.
Take `O=C(O[C@@H]1Cc2c(O)cc(O)cc2O[C@@H]1c1cc(O)c(O)c(O)c1)c1cc(O)c(O)c(O)c1` [EGCG, epigallocatechin gallate]: the “HT29 IC50” value in data set [8] was 27 µg/mL.

Usually IC50 stands for the concentration that gives 50% inhibition. The inhibition is the drop in the measured response relative to a control, in per cent.
